biological target: ATR (Homo sapiens (Human), UniProt Q13535); experiment: Cellular Assay - ATR, phosphorylation of Chk1 (Ser 345) in HT29 cells after 4NQO (Test (b)); format: cell-based; conditions: cell assay Test (b); pChk1 Ser345 in HT29 cells, 3 μM 4NQO; arithmetic mean
Text: ATM and ATR have distinct and overlapping responses to DNA damage. They must participate together and responses must be co-ordinated. Both pathways may be activated by ionising radiation, however only ATR is activated by UV. Since UV treatment is not practical for use in a high throughput cell assay, the UV mimetic 4NQ0 (Sigma) was chosen to activate the ATR DNA damage response pathway.
Chk1, a downstream protein kinase of ATR, plays a key role in DNA damage checkpoint control. Activation of Chk1 involves phosphorylation of Ser317 and Ser345 (regarded as the preferential target for phosphorylation/activation by ATR). […] Compounds dose ranges were created by diluting in 100% DMSO and then further into assay media (EMEM, 10% FCS, 1% glutamine) using a Labcyte Echo Acoustic dispensing instrument. Cells were plated in 384 well Costar plates at 9×10^4 cells per ml in 40 μL EMEM, 10% FCS, 1% glutamine and grown for 24 hrs. Following addition of compound the cells were incubated for 60 minutes. A final concentration of 3 μM 4NQ0 (prepared in 100% DMSO) was then added using the Labcyte Echo and the cells incubated for a further 60mins. The cells are then fixed by adding 40 μL 3.7% v/v formaldehyde solution for 20 minutes. After removal of fix, cells were washed with PBS and permeabilised in 40 μL of PBS containing 0.1% Triton™ X-100. Cells are then washed and 15 μl primary antibody solution (pChk1 Ser345) added and the plates incubated at 4° C. overnight. […] The plates are washed and left in 40 μl PBS. Plates were then read on an ArrayS can Vti instrument to determine staining intensities, and dose responses were obtained and used to determine the IC50 values for the compounds.

Sequence of ATR (Q13535 whole entry): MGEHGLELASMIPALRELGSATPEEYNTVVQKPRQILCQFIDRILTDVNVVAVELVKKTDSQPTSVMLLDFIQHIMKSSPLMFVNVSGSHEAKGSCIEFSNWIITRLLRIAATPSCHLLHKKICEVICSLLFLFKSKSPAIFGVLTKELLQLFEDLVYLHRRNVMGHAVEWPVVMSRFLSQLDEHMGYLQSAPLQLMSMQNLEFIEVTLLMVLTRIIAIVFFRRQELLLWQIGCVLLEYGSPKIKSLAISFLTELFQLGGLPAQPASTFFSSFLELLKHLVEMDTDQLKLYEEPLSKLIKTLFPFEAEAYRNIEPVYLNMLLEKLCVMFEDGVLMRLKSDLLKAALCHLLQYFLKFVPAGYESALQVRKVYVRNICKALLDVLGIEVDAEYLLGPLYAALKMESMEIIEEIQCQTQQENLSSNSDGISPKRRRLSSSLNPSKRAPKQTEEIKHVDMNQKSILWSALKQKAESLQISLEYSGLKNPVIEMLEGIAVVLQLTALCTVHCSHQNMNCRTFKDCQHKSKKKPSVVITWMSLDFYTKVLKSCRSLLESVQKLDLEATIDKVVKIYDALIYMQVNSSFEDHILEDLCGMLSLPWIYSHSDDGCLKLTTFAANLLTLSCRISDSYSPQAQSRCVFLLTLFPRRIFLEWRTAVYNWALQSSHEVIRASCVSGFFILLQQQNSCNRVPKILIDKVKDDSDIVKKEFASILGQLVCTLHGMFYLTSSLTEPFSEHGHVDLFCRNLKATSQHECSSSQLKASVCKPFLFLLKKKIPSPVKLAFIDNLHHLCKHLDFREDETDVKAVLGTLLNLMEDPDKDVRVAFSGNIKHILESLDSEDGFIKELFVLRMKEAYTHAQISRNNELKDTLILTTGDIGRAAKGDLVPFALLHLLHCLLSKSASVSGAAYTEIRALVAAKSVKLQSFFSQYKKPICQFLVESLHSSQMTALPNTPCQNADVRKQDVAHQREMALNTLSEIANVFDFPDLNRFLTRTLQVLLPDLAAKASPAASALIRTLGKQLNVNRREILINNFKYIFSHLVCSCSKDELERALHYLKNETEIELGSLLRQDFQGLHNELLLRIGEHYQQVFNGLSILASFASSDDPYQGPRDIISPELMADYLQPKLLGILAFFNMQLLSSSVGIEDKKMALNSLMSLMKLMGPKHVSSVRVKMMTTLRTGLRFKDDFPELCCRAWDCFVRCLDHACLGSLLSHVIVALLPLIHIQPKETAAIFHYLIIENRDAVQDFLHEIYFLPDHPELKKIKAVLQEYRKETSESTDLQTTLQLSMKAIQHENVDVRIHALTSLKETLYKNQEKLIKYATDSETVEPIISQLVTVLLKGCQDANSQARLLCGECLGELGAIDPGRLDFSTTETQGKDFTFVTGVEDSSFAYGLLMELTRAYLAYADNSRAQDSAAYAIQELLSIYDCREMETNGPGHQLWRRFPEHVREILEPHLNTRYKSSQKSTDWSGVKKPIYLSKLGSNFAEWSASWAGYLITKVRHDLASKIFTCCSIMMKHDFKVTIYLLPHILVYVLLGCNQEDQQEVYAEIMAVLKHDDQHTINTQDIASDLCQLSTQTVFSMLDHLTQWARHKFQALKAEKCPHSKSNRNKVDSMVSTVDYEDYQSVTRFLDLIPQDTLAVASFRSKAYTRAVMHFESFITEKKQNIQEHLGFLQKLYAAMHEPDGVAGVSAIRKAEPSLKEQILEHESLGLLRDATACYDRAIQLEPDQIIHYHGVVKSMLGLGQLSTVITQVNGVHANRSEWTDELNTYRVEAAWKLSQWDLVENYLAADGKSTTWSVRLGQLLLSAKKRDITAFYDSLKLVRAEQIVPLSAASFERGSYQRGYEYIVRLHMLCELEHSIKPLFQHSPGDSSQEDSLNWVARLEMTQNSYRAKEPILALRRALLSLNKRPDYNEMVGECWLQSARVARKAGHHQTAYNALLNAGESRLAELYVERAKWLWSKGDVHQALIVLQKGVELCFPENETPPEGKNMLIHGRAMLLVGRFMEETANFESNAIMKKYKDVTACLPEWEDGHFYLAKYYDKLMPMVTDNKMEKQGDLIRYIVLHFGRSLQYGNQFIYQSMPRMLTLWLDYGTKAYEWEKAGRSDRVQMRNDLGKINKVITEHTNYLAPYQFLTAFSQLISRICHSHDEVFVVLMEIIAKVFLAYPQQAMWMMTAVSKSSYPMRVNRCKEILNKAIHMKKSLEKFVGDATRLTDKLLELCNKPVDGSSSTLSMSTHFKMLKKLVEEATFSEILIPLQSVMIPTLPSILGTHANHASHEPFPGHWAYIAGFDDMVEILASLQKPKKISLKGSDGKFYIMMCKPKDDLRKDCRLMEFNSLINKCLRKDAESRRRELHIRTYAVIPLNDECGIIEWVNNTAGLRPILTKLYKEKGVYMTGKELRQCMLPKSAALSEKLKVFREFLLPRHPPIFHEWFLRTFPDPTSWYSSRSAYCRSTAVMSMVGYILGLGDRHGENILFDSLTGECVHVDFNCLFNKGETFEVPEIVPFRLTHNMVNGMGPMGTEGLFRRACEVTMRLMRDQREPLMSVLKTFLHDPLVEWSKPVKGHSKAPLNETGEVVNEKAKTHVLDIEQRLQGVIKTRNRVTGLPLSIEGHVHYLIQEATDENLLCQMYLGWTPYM
Sequence of ATR (Q8WXE1 whole entry partner): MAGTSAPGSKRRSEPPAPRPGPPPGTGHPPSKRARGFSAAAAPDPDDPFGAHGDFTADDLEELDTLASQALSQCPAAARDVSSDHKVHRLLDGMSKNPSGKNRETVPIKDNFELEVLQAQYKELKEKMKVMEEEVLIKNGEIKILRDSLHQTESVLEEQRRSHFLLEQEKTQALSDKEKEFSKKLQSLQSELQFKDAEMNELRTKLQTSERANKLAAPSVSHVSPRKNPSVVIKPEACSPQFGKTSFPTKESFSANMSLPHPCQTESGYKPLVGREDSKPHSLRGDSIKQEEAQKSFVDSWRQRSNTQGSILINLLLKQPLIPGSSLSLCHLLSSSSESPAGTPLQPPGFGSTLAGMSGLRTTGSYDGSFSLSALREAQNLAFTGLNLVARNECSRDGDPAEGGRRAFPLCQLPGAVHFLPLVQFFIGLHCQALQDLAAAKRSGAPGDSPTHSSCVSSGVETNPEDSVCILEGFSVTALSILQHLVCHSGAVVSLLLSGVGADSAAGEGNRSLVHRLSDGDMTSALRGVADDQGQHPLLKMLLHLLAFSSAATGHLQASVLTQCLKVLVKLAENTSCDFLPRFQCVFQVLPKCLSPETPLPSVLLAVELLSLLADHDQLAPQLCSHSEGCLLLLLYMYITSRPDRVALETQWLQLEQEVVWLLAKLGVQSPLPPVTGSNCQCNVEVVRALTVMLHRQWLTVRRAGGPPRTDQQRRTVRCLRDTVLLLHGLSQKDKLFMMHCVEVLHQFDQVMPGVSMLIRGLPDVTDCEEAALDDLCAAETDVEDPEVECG

IC50	Compound
16.2 nM	CNc1nc2cc(F)ccc2n1-c1nc(N2CCOC[C@H]2C)cc(C(C)(C)[S@](C)(=N)=O)n1 [Example 5.04, 5-Fluoro-N-methyl-1-{4-[1-methyl-1-((R)—S-methylsulfonimidoyl)ethyl]-6-[(3R)-3-methylmorpholin-4-yl]pyrimidin-2-yl}-1H-benzimidazol-2-amine]
51.1 nM	C[C@@H]1COCCN1c1cc(C2([S@@](C)(=N)=O)CCOCC2)nc(-c2cccc3[nH]ccc23)n1 [Example 4.03]
29 nM	CNc1nc2ccc(F)cc2n1-c1nc(N2CCOC[C@H]2C)cc(C2([S@](C)(=N)=O)CC2)n1 [Example 5.07, 6-Fluoro-N-methyl-1-{4-[(3R)-3-methylmorpholin-4-yl]-6-[1-((R)—S-methylsulfonimidoyl)cyclopropyl]pyrimidin-2-yl}-1H-benzimidazol-2-amine]
33.1 nM	CNc1nc2ccc(F)cc2n1-c1nc(N2CCOC[C@H]2C)cc(C(C)(C)[S@](C)(=N)=O)n1 [Example 5.03, 6-Fluoro-N-methyl-1-{4-[1-methyl-1-((R)—S-methylsulfonimidoyl)ethyl]-6-[(3R)-3-methylmorpholin-4-yl]pyrimidin-2-yl}-1H-benzimidazol-2-amine]
18.3 nM	CNc1nc2cc(F)ccc2n1-c1nc(N2CCOC[C@H]2C)cc(C(C)(C)[S@@](C)(=N)=O)n1 [Example 5.05, 5-Fluoro-N-methyl-1-{4-[1-methyl-1-((S)—S-methylsulfonimidoyl)ethyl]-6-[(3R)-3-methylmorpholin-4-yl]pyrimidin-2-yl}-1H-benzimidazol-2-amine]
70.8 nM	CNc1nc2c(F)cccc2n1-c1nc(N2CCOC[C@H]2C)cc(C(C)(C)[S@](C)(=N)=O)n1 [Example 5.02, 4-fluoro-N-methyl-1-{4-[1-methyl-1-((R)—S-methylsulfonimidoyl)ethyl]-6-[(3R)-3-methylmorpholin-4-yl]pyrimidin-2-yl}-1H-benzimidazol-2-amine]
47 nM	CNc1nc2ccc(F)cc2n1-c1nc(N2CCOC[C@H]2C)cc(C2([S@@](C)(=N)=O)CC2)n1 [Example 5.10, 6-fluoro-N-methyl-1-{4-[(3R)-3-methylmorpholin-4-yl]-6-[1-((S)—S-methylsulfonimidoyl)cyclopropyl]pyrimidin-2-yl}-1H-benzimidazol-2-amine]
12.9 nM	C[C@@H]1COCCN1c1cc(C2([S@@](C)(=N)=O)CC2)nc(-c2cccc3[nH]ccc23)n1 [Example 2.06, 4-{4-[(3R)-3-methylmorpholin-4-yl]-6-[1-((S)—S-methylsulfonimidoyl)cyclopropyl]pyrimidin-2-yl}-1H-indole]
8.43 nM	CNc1nc2ccccc2n1-c1nc(N2CCOC[C@H]2C)cc(C(C)(C)[S@](C)(=N)=O)n1 [Example 3.02, N-methyl-1-{4-[1-methyl-1-((R)—S-methylsulfonimidoyl)ethyl]-6-[(3R)-3-methylmorpholin-4-yl]pyrimidin-2-yl}-1H-benzimidazol-2-amine]
18 nM	CNc1nc2cc(F)ccc2n1-c1nc(N2CCOC[C@H]2C)cc(C2([S@@](C)(=N)=O)CC2)n1 [Example 5.09, 5-fluoro-N-methyl-1-{4-[(3R)-3-methylmorpholin-4-yl]-6-[1-((S)—S-methylsulfonimidoyl)cyclopropyl]pyrimidin-2-yl}-1H-benzimidazol-2-amine]
109 nM	CNc1nc2c(F)cccc2n1-c1nc(N2CCOC[C@H]2C)cc(C2([S@@](C)(=N)=O)CC2)n1 [Example 2.10, 4-fluoro-N-methyl-{4-[(3R)-3-methylmorpholin-4-yl]-6-[1-((S)—S-methylsulfonimidoyl)cyclopropyl]pyrimidin-2-yl}-1H-benzimidazol-2-amine]
2.76 nM	C[C@@H]1COCCN1c1cc(C2([S@@](C)(=N)=O)CC2)nc(-n2c(N)nc3ccccc32)n1 [Example 2.08, 1-{4-[(3R)-3-methylmorpholin-4-yl]-6-[1-((S)—S-methylsulfonimidoyl)cyclopropyl]pyrimidin-2-yl}-1H-benzimidazol-2-amine]
10.1 nM	CNc1nc2cc(F)ccc2n1-c1nc(N2CCOC[C@H]2C)cc(C2([S@](C)(=N)=O)CC2)n1 [Example 5.08, 5-fluoro-N-methyl-1-{4-[(3R)-3-methylmorpholin-4-yl]-6-[1-((R)—S-methylsulfonimidoyl)cyclopropyl]pyrimidin-2-yl}-1H-benzimidazol-2-amine]
159 nM	CNc1nc2c(F)cccc2n1-c1nc(N2CCOC[C@H]2C)cc(C2([S@](C)(=N)=O)CC2)n1 [Example 2.09, 4-Fluoro-N-methyl-1-{4-[(3R)-3-methylmorpholin-4-yl]-6-[1-((R)—S-methylsulfonimidoyl)cyclopropyl]pyrimidin-2-yl}-1H-benzimidazol-2-amine]
39.8 nM	CNc1nc2ccccc2n1-c1nc(N2CCOC[C@H]2C)cc(C2([S@](C)(=N)=O)CCOCC2)n1 [Example 4.02, N-methyl-1-{4-[(3R)-3-methylmorpholin-4-yl]-6-[4-((R)—S-methylsulfonimidoyl)tetrahydro-2H-pyran-4-yl]pyrimidin-2-yl}-1H-benzimidazol-2-amine]
44.4 nM	CNc1nc2ccc(F)cc2n1-c1nc(N2CCOC[C@H]2C)cc(C(C)(C)[S@@](C)(=N)=O)n1 [Example 5.06, 6-fluoro-N-methyl-1-{4-[1-methyl-1-((S)—S-methylsulfonimidoyl)ethyl]-6-[(3R)-3-methylmorpholin-4-yl]pyrimidin-2-yl}-1H-benzimidazol-2-amine]
53.6 nM	CNc1nc2ccccc2n1-c1nc(N2CCOC[C@H]2C)cc(C2([S@@](C)(=N)=O)CCOCC2)n1 [Example 4.01, N-Methyl-1-{4-[(3R)-3-methylmorpholin-4-yl]-6-[4-((S)—S-methylsulfonimidoyl)tetrahydro-2H-pyran-4-yl]pyrimidin-2-yl}-1H-benzimidazol-2-amine]
62.5 nM	CNc1nc2c(F)cccc2n1-c1nc(N2CCOC[C@H]2C)cc(C(C)(C)[S@@](C)(=N)=O)n1 [Example 5.01, 4-Fluoro-N-methyl-1-{4-[1-methyl-1-((S)—S-methylsulfonimidoyl)ethyl]-6-[(3R)-3-methylmorpholin-4-yl]pyrimidin-2-yl}-1H-benzimidazol-2-amine]
12.8 nM	CNc1nc2ccccc2n1-c1nc(N2CCOC[C@H]2C)cc(C(C)(C)[S@@](C)(=N)=O)n1 [Example 3.01, N-methyl-1-{4-[1-methyl-1-((S)—S-methylsulfonimidoyl)ethyl]-6-[(3R)-3-methylmorpholin-4-yl]pyrimidin-2-yl}-1H-benzimidazol-2-amine]
2.58 nM	C[C@@H]1COCCN1c1cc(C2([S@](C)(=N)=O)CC2)nc(-n2c(N)nc3ccccc32)n1 [Example 2.07, 1-{4-[(3R)-3-Methylmorpholin-4-yl]-6-[1-((R)—S-methylsulfonimidoyl)cyclopropyl]pyrimidin-2-yl}-1H-benzimidazol-2-amine]
75.8 nM	C[C@@H]1COCCN1c1cc(C2([S@](C)(=N)=O)CC2)nc(-c2cccc3[nH]ccc23)n1 [Example 2.05, 4-{4-[(3R)-3-Methylmorpholin-4-yl]-6-[1-((R)—S-methylsulfonimidoyl)cyclopropyl]pyrimidin-2-yl}-1H-indole]

From patent US8552004B2, “Chemical compounds” (AstraZeneca AB, priority 2010, dated 2013)
